Experimental data reported in paper PMC8185074, “Anchor extension: a structure-guided approach to design cyclic peptides targeting enzyme active sites” (Nature Communications, 2021).
Peptide text beside a SMILES is read from it.

Tests used:
Type in all cases: biochemical
[1] = target: T1, HDAC3 (Homo sapiens, UniProt O15379); assay: HDAC3 inhibition, full IC50 measurement (Reaction Biology; fluorogenic p53 peptide RHKK(Ac)AMC)
T1 construct: purchased Reaction Biology Corporation (assay run by the CRO)
How it was run: (§1)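 Inhibitory peptides were acoustically dispensed with enzyme, then substrate added; 1 h at 30 °C. Developer stopped reaction; plateau endpoint fluorescence (360/460 nm) gave IC50.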

[2] = target: T2, HDAC2 (Homo sapiens, UniProt Q92769); assay: Initial HDAC2 IC50 estimate (BPS Biosciences HDAC fluorogenic assay kit); details: Supplementary Dataset 2; read-out: HDAC2 activity (initial activity)
T2 construct: purchased Reaction Biology Corporation (assay run by the CRO)
How it was run: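 Inhibition measured by kit-based fluorogenic HDAC activity assays, with each point in duplicate or triplicate. Values come from a full 1 µM–100 pM series (1:10 steps) or are range estimates from just 20 nM and 200 nM.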

[3] = target: T3, HDAC6 (Homo sapiens, UniProt Q9UBN7); assay: HDAC6 inhibition, full IC50 measurement (Reaction Biology; fluorogenic p53 peptide RHKK(Ac)AMC)
T3 construct: purchased Reaction Biology Corporation (assay run by the CRO)
T3 sequence (Q9UBN7 1-1215): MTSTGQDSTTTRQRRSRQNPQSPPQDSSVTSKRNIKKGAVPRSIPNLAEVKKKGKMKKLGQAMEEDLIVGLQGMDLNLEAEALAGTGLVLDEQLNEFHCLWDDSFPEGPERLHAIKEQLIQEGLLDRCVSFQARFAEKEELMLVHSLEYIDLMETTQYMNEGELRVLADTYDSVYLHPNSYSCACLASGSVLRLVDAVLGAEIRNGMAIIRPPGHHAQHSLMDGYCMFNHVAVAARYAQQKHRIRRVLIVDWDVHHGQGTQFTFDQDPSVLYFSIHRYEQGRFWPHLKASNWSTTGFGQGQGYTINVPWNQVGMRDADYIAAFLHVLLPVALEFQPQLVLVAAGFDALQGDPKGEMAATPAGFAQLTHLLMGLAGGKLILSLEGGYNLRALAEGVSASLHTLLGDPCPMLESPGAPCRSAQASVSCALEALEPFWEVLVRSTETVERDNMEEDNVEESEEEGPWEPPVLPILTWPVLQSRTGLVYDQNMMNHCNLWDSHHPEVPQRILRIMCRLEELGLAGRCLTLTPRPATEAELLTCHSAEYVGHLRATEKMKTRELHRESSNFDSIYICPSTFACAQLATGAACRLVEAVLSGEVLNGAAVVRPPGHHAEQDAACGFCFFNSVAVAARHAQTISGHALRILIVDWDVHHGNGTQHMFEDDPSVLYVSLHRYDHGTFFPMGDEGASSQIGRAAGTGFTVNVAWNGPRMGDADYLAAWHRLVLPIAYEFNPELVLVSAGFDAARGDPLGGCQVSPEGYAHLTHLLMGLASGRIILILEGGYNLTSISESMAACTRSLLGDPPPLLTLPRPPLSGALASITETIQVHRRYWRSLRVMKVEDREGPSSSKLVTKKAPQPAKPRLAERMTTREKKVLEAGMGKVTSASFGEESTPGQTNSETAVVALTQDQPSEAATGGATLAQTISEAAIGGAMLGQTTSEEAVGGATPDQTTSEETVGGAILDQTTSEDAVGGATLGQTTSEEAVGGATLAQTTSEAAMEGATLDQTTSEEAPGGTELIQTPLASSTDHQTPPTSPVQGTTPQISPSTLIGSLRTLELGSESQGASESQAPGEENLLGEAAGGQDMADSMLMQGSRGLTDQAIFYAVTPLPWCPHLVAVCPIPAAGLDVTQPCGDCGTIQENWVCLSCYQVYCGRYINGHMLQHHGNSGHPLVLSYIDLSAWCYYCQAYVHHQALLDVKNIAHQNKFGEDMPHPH
How it was run: as §1

T1 sequence (O15379 whole entry): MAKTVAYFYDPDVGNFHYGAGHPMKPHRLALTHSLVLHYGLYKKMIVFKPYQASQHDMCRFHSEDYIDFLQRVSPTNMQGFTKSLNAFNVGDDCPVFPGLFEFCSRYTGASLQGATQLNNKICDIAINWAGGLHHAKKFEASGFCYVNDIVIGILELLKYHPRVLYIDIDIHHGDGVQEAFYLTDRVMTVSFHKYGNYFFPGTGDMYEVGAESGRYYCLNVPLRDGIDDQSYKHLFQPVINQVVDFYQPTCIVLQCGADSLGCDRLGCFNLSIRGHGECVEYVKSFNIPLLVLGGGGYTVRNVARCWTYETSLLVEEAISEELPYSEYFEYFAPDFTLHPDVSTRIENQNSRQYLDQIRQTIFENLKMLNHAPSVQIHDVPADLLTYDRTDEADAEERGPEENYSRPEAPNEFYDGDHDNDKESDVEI
T1 sequence (Q9Y618 395-489 partner limits assumed): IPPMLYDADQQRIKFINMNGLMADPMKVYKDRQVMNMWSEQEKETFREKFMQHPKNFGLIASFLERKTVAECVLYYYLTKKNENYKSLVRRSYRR
T2 sequence (Q92769 whole entry): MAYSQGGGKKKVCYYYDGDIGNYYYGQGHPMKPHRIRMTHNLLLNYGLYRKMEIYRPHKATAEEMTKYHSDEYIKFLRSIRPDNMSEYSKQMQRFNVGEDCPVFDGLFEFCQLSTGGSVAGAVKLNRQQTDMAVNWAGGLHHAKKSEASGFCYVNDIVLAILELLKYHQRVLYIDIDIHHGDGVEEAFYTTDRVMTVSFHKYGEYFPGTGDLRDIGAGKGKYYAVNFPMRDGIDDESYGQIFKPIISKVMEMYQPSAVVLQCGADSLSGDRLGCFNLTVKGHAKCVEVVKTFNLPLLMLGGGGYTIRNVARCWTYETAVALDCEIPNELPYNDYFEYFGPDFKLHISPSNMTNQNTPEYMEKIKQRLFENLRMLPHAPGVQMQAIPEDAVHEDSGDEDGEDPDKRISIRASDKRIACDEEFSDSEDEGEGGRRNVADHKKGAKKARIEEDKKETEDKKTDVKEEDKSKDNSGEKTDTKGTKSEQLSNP

N=C(N)NCCC[C@H]1NC(=O)[C@@H]2CCCN2C(=O)[C@H](CO)NC(=O)[C@@H](Cc2c[nH]cn2)NC(=O)[C@H](CCCCCS)NC(=O)[C@H](CCCCN)NC(=O)[C@H](Cc2ccc(O)cc2)NC(=O)[C@H]2CCCN2C(=O)[C@@H](CCC(N)=O)NC1=O [des3.1.0, SHA-dHis-Ser-Pro-dArg-dGln-dPro-Tyr-Lys] (HELM PEPTIDE1{K.[O=C([C@H](CCCCCS)N[*:1])[*:2]].[dH].S.P.[dR].[dQ].[dP].Y}$PEPTIDE1,PEPTIDE1,1:R1-9:R2$$$V2.0)
HDAC3 activity raw data (signal) ([1]; Conc. 1.00E-05 M, t1): 46436
HDAC3 activity raw data (signal) ([1]; Conc. 1.00E-05 M, t2): 68834
HDAC3 activity raw data (signal) ([1]; Conc. 1.11E-06 M, t1): 407446
HDAC3 activity raw data (signal) ([1]; Conc. 1.11E-06 M, t2): 414242
HDAC3 activity raw data (signal) ([1]; Conc. 1.23E-07 M, t1): 842197
HDAC3 activity raw data (signal) ([1]; Conc. 1.23E-07 M, t2): 849517
HDAC3 activity raw data (signal) ([1]; Conc. 1.37E-08 M, t1): 932057
HDAC3 activity raw data (signal) ([1]; Conc. 1.37E-08 M, t2): 998355
HDAC3 activity raw data (signal) ([1]; Conc. 1.52E-09 M, t1): 936917
HDAC3 activity raw data (signal) ([1]; Conc. 1.52E-09 M, t2): 1040178
HDAC3 activity raw data (signal) ([1]; Conc. 3.33E-06 M, t1): 127237
HDAC3 activity raw data (signal) ([1]; Conc. 3.33E-06 M, t2): 217535
HDAC3 activity raw data (signal) ([1]; Conc. 3.70E-07 M, t1): 580195
HDAC3 activity raw data (signal) ([1]; Conc. 3.70E-07 M, t2): 672322
HDAC3 activity raw data (signal) ([1]; Conc. 4.12E-08 M, t1): 931839
HDAC3 activity raw data (signal) ([1]; Conc. 4.12E-08 M, t2): 959771
HDAC3 activity raw data (signal) ([1]; Conc. 4.57E-09 M, t1): 999086
HDAC3 activity raw data (signal) ([1]; Conc. 4.57E-09 M, t2): 1037845
HDAC3 activity raw data (signal) ([1]; Conc. 5.08E-10 M, t1): 932822
HDAC3 activity raw data (signal) ([1]; Conc. 5.08E-10 M, t2): 1013267
IC50 [2]: 1400 nM
HDAC6 activity raw data (signal) ([3]; Conc. 1.00E-05 M, t1): 11537
HDAC6 activity raw data (signal) ([3]; Conc. 1.00E-05 M, t2): 13038
HDAC6 activity raw data (signal) ([3]; Conc. 1.11E-06 M, t1): 76742
HDAC6 activity raw data (signal) ([3]; Conc. 1.11E-06 M, t2): 90822
HDAC6 activity raw data (signal) ([3]; Conc. 1.23E-07 M, t1): 159657
HDAC6 activity raw data (signal) ([3]; Conc. 1.23E-07 M, t2): 168002
HDAC6 activity raw data (signal) ([3]; Conc. 1.37E-08 M, t1): 160112
HDAC6 activity raw data (signal) ([3]; Conc. 1.37E-08 M, t2): 166776
HDAC6 activity raw data (signal) ([3]; Conc. 1.52E-09 M, t1): 119928
HDAC6 activity raw data (signal) ([3]; Conc. 1.52E-09 M, t2): 158551
HDAC6 activity raw data (signal) ([3]; Conc. 3.33E-06 M, t1): 37434
HDAC6 activity raw data (signal) ([3]; Conc. 3.33E-06 M, t2): 38190
HDAC6 activity raw data (signal) ([3]; Conc. 3.70E-07 M, t1): 143033
HDAC6 activity raw data (signal) ([3]; Conc. 3.70E-07 M, t2): 130317
HDAC6 activity raw data (signal) ([3]; Conc. 4.12E-08 M, t1): 144961
HDAC6 activity raw data (signal) ([3]; Conc. 4.12E-08 M, t2): 163766
HDAC6 activity raw data (signal) ([3]; Conc. 4.57E-09 M, t1): 147758
HDAC6 activity raw data (signal) ([3]; Conc. 4.57E-09 M, t2): 164399
HDAC6 activity raw data (signal) ([3]; Conc. 5.08E-10 M, t1): 111941
HDAC6 activity raw data (signal) ([3]; Conc. 5.08E-10 M, t2): 129043
